Like-named read-outs stand apart in the source and are kept apart here.
Assays:
Format in all cases: cell-based, human
[1] = tested on: TR146; test: MTT viability assay
Description: (§1) A colorimetric 3-(4,5-dimethylthiazolyl)-2,5-diphenyltetrazolium bromide (MTT) cell metabolic activity assay was used to assess the cytotoxicity of complexes 3 and 4. The cells (described above) were cultured under standard conditions. Cells were seeded in 96-well plates at a density of 10,000 cells per well (200 μL) and allowed to grow for 24 h. The medium was then replaced with medium containing complex 3 or 4 at a concentration ranging from 0 to 200 μM, and the cells were incubated for an additional 24, 48, and 72 h. Subsequently, the medium was replaced with MTT solution, consisting of yellow tetrazolium dye 3-(4,5-dimethylthiazol-2-yl)-2,5-diphenyltetrazolium bromide (Sigma-Aldrich, Merck, Germany), and incubated for 2 h at 37°C. The dye was then removed, and the resulting purple formazan formed in viable cells was dissolved in DMSO, followed by shaking for 30 s. Absorbance was measured at 570 nm using an […] 200 PRO microplate reader (TECAN, Männedorf, Switzerland). All experiments were performed in quadruplicate and repeated three times.
(§2) The cell inhibitory concentration (IC) was calculated using the equation IC = (Acomplex3/complex4 well/mean Acontrol wells) × 100%. The half-maximal inhibitory concentration (IC50) was determined from dose–response curves using GraphPad Prism 10 (GraphPad Software Inc., La Jolla, CA, USA). The selectivity index toward cancer cells was calculated as a ratio of the average IC50 value for HGF to the IC50 value for the corresponding cancer cell line.

[2] = tested on: Detroit 562; test: MTT viability assay
Description: as §1, §2

[3] = tested on: FaDu; test: MTT viability assay
Description: as §1, §2

[4] = tested on: CAL 27; test: MTT viability assay
Description: as §1, §2

[5] = tested on: KB; test: MTT viability assay
Description: as §1, §2

[6] = tested on: Hep-2; test: MTT viability assay
Description: as §1, §2

[7] = tested on: HGF; test: MTT viability assay
Description: as §1, §2

[8] = tested on: SCC-9; test: MTT viability assay
Description: as §1, §2

[9] = tested on: TR146; test: Wound healing assay; details: IC25 concentration, area closed
Description: (§3) The wound healing activity of complexes 3 and 4 was evaluated using the ibidi Culture-Insert 2 Well in a μ-dish. Cells were plated by applying 70 μL of cell suspension at a density of 50,000 cells into both wells of the Culture-Insert 2 Well and grown over the weekend. Once confluency was achieved, sterile tweezers were used to detach the Culture-Insert 2 Well from the μ-dish. The cell layer was then gently washed with PBS. Subsequently, the cell layer was treated with medium containing complex 3 or 4 at the IC25 concentration, and wound closure was observed and photographed using an inverted light microscope (0–55 h of incubation). Experiments were performed in four independent replicates.
(§4) An in vitro wound healing assay was performed to determine the effect of complex 3 or 4 on cell migration. The area of the wound bordered by a monolayer of cells was measured using ImageJ software. Wound closure was monitored from 0 to 55 h. […] Microscope images after 24 h for all cell lines, as well as 55 h, can be seen in Supplementary Figure S7. […] The stained wound healing area after 55 h is shown in Supplementary Figure S10.

[10] = tested on: Detroit 562; test: Wound healing assay; details: IC25 concentration, area closed
Description: as §3, §4

[11] = tested on: FaDu; test: Wound healing assay; details: IC25 concentration, area closed
Description: as §3, §4

[12] = tested on: CAL 27; test: Wound healing assay; details: IC25 concentration, area closed
Description: as §3, §4

[13] = tested on: KB; test: Wound healing assay; details: IC25 concentration, area closed
Description: as §3, §4

[14] = tested on: Hep-2; test: Wound healing assay; details: IC25 concentration, area closed
Description: as §3, §4

[15] = tested on: HGF; test: Wound healing assay; details: IC25 concentration, area closed
Description: as §3, §4

[16] = tested on: SCC-9; test: Wound healing assay; details: IC25 concentration, area closed
Description: as §3, §4

Cc1ccc(C(C)C)cc1.Cc1ccc(C(C)C)cc1.O=C1C(=Cc2ccnc3ccccc23)COCC1=Cc1ccnc2ccccc12.[Cl][Ru][Cl].[Cl][Ru][Cl] [Complex 3]
IC50 ([1]; TR146, 24 h, read-out: IC50 24h): 19.7 ± 4.82 µM | IC50 ([1]; TR146, 48 h, read-out: IC50 48h): 11.3 ± 0.78 µM | IC50 ([1]; TR146, 72 h, read-out: IC50 72h): 4.9 ± 0.42 µM | IC50 ([2]; Detroit 562, 24 h, read-out: IC50 24h): 12.3 ± 1.83 µM | IC50 ([2]; Detroit 562, 48 h, read-out: IC50 48h): 3.9 ± 0.13 µM | IC50 ([2]; Detroit 562, 72 h, read-out: IC50 72h): 3.5 ± 0.11 µM | IC50 ([3]; 24 h, read-out: IC50 24h): 8.65 µM | IC50 ([3]; 48 h, read-out: IC50 48h): 5.75 ± 0.06 µM | IC50 ([3]; 72 h, read-out: IC50 72h): 3.85 ± 0.24 µM | IC50 ([4]; CAL 27, 24 h, read-out: IC50 24h): 22.5 ± 1.08 µM | IC50 ([4]; CAL 27, 48 h, read-out: IC50 48h): 12.9 ± 2.56 µM | IC50 ([4]; CAL 27, 72 h, read-out: IC50 72h): 6.35 ± 1.75 µM | IC50 ([5]; 24 h, read-out: IC50 24h): 14.3 µM | IC50 ([5]; 48 h, read-out: IC50 48h): 10.5 ± 0.43 µM | IC50 ([5]; 72 h, read-out: IC50 72h): 3.7 ± 0.42 µM | IC50 ([6]; Hep-2, 24 h, read-out: IC50 24h): 12.7 µM | IC50 ([6]; Hep-2, 48 h, read-out: IC50 48h): 11.1 ± 0.32 µM | IC50 ([6]; Hep-2, 72 h, read-out: IC50 72h): 5.15 ± 0.07 µM | IC50 ([7]; 24 h, read-out: IC50 24h): 20.8 ± 3.95 µM | IC50 ([7]; 48 h, read-out: IC50 48h): 13 ± 0.27 µM | IC50 ([7]; 72 h, read-out: IC50 72h): 9.15 ± 1.2 µM | IC50 ([8]; SCC-9, 24 h, read-out: IC50 24h): 4.7 µM | IC50 ([8]; SCC-9, 48 h, read-out: IC50 48h): 2.85 ± 0.01 µM | IC50 ([8]; SCC-9, 72 h, read-out: IC50 72h): 2.8 ± 0.01 µM | Wound area (%) ([9]; TR146, 24 h): 3 ± 1% | Wound area (%) ([9]; TR146, 48 h): 4 ± 1% | Wound area (%) ([9]; TR146, 55 h): less than 10% | Wound area (%) ([9]; TR146, 55 h, listed as C3): 5 ± 1% | Wound area (%) ([10]; Detroit 562, 24 h): 8 ± 2% | Wound area (%) ([10]; Detroit 562, 48 h): 9 ± 3% | Wound area (%) ([10]; Detroit 562, 55 h): less than 20% | Wound area (%) ([10]; Detroit 562, 55 h, listed as C3): 10 ± 2% | Wound area (%) ([11]; 24 h): 7 ± 1% | Wound area (%) ([11]; 48 h): 9 ± 1% | Wound area (%) ([11]; 55 h): less than 20% | Wound area (%) ([11]; 55 h, listed as C3): 12 ± 1% | Wound area (%) ([12]; CAL 27, 24 h): 10 ± 2% | Wound area (%) ([12]; CAL 27, 48 h): 15 ± 3% | Wound area (%) ([12]; CAL 27, 55 h): less than 20% | Wound area (%) ([12]; CAL 27, 55 h, listed as C3): 16 ± 3% | Wound area (%) ([13]; 24 h): 7 ± 1% | Wound area (%) ([13]; 48 h): 13 ± 1% | Wound area (%) ([13]; 55 h): less than 20% | Wound area (%) ([13]; 55 h, listed as C3): 17 ± 2% | Wound area (%) ([14]; Hep-2, 24 h): 3 ± 1% | Wound area (%) ([14]; Hep-2, 48 h): 5 ± 1% | Wound area (%) ([14]; Hep-2, 55 h): less than 10% | Wound area (%) ([14]; Hep-2, 55 h, listed as C3): 7 ± 1% | Wound area (%) ([15]; 24 h): 8 ± 3% | Wound area (%) ([15]; 48 h): 13 ± 5% | Wound area (%) ([15]; 55 h): 71 ± 2% | Wound area (%) ([16]; SCC-9, 24 h): 5 ± 2% | Wound area (%) ([16]; SCC-9, 48 h): 6 ± 2% | Wound area (%) ([16]; SCC-9, 55 h): less than 10% | Wound area (%) ([16]; SCC-9, 55 h, listed as C3): 7 ± 2%

From PMC12754617, “Ruthenium-enhanced curcumin derivatives target tumor growth and cancer-related inflammation in head and neck cancer models” (Frontiers in Oncology, 2025)
